Data taken from ChEMBL document CHEMBL1649074, “Aurora kinase inhibitors based on the imidazo[1,2-a]pyrazine core: fluorine and deuterium incorporation improve oral absorption and exposure” (J Med Chem, 2011).

How the values were obtained:
Ephrin type-B receptor 4 = molecular target: T1, Ephrin type-B receptor 4 (Homo sapiens, UniProt P54760); experiment: Inhibition of EPHB4
T1 sequence (P54760 whole entry): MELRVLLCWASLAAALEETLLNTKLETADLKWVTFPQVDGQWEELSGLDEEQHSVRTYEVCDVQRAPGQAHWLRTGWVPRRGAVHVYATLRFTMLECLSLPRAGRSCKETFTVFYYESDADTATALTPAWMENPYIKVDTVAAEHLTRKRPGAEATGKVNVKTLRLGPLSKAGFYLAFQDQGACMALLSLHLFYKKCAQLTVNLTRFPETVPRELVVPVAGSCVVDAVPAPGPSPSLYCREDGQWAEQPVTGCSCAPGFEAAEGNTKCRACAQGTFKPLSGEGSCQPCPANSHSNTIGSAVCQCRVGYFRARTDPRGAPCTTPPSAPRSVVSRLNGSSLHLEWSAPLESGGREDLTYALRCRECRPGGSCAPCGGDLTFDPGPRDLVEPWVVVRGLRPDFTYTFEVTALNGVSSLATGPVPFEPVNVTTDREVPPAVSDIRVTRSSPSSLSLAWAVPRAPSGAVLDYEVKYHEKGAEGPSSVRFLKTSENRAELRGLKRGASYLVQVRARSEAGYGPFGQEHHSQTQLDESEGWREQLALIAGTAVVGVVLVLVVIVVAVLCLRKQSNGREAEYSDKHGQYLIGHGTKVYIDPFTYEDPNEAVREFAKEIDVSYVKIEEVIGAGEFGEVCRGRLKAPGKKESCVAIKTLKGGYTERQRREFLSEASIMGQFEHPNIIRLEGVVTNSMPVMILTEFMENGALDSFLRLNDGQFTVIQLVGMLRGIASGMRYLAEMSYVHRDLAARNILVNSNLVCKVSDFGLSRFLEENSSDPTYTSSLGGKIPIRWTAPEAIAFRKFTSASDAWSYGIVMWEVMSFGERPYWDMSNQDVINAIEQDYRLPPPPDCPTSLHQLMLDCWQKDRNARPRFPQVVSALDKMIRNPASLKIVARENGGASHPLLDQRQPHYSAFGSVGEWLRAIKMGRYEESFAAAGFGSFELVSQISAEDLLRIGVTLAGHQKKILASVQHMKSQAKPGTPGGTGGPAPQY

[1] = molecular target: RAC-alpha serine/threonine-protein kinase (Homo sapiens, UniProt P31749); experiment: Inhibition of AKT1
[2] = molecular target: Protein kinase C alpha type (Homo sapiens, UniProt P17252); experiment: Inhibition of PKCA
[3] = molecular target: T2, Calcium/calmodulin-dependent protein kinase type IV (Homo sapiens, UniProt Q16566); experiment: Inhibition of CAMK4
T2 sequence (Q16566 whole entry): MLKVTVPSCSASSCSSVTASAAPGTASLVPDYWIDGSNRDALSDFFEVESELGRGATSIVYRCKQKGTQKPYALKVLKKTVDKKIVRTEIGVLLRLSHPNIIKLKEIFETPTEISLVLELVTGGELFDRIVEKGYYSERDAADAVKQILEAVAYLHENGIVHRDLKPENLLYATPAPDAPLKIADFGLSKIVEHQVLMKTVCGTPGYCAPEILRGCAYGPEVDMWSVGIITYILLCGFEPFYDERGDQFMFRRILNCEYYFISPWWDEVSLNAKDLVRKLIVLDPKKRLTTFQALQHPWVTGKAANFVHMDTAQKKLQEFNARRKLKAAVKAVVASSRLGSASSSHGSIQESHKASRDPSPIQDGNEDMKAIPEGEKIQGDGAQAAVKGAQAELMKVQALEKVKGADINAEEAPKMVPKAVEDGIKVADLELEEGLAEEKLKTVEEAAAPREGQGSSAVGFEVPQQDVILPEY

Aurora kinase B [4] = molecular target: T3, Aurora kinase B (Homo sapiens, UniProt Q96GD4); experiment: Inhibition of Aurora B in human HCT116 cells assessed as inhibition of histone H3 phosphorylation by immunofluorescence assay; type: cell-based, HCT-116
[5] = molecular target: Cyclin-dependent kinase 2 (Homo sapiens, UniProt P24941); experiment: Inhibition of CDK2
Aurora kinase B [6] = molecular target: T3, Aurora kinase B; experiment: Inhibition of Aurora B
[7] = molecular target: Serine/threonine-protein kinase PLK3 (Homo sapiens, UniProt Q9H4B4); experiment: Inhibition of PLK3
[8] = molecular target: T4, Inhibitor of nuclear factor kappa-B kinase subunit beta (Homo sapiens, UniProt O14920); experiment: Inhibition of IKK-beta
T4 sequence (O14920 whole entry): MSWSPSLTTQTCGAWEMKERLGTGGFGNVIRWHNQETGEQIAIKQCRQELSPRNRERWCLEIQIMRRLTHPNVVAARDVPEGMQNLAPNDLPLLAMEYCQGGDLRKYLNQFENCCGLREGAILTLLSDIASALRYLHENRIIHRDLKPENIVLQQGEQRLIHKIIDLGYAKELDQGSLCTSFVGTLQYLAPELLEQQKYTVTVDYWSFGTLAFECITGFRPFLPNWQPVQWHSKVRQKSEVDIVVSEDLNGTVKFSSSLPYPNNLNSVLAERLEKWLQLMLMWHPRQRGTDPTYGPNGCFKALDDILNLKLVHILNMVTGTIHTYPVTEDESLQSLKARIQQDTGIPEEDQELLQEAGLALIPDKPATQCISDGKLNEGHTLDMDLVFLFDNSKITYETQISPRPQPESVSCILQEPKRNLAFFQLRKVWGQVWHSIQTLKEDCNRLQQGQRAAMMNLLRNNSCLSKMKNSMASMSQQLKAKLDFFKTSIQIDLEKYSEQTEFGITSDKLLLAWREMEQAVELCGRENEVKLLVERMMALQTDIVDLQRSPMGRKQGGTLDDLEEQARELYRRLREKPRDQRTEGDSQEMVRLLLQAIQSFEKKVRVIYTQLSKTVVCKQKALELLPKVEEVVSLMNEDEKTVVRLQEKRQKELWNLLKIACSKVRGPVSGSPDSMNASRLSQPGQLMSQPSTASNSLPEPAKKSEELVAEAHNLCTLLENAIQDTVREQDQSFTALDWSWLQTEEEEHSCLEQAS

[9] = molecular target: Mitogen-activated protein kinase 1 (Homo sapiens, UniProt P28482); experiment: Inhibition of ERK2
Mitogen-activated protein kinase 1, sequence (P28482 whole entry): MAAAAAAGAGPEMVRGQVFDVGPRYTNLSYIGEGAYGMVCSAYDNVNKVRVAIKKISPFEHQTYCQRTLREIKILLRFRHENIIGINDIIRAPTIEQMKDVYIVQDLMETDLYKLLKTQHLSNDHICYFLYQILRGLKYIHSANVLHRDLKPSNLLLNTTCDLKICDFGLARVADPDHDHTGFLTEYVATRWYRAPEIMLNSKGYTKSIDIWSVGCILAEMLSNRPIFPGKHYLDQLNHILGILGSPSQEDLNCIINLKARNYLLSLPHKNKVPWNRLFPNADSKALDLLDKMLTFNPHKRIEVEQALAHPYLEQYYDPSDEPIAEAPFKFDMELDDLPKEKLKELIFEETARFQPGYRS

Serine/threonine-protein kinase PLK3, sequence (Q9H4B4 whole entry): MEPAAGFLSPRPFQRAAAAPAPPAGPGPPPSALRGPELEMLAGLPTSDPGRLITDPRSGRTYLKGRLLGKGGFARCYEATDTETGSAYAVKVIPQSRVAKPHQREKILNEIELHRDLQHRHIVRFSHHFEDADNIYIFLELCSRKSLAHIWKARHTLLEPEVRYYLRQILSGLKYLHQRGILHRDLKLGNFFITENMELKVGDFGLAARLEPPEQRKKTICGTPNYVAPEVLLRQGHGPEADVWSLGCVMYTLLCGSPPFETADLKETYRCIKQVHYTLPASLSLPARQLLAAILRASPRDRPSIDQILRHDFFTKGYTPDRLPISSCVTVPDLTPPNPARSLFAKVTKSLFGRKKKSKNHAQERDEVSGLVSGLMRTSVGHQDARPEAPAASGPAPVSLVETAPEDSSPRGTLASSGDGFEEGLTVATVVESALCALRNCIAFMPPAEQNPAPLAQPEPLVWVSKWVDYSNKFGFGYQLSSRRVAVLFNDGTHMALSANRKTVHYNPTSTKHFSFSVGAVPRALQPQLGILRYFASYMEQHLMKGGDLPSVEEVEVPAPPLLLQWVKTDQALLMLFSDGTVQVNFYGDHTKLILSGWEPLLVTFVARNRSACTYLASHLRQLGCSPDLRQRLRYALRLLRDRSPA
T3 sequence (Q96GD4 whole entry): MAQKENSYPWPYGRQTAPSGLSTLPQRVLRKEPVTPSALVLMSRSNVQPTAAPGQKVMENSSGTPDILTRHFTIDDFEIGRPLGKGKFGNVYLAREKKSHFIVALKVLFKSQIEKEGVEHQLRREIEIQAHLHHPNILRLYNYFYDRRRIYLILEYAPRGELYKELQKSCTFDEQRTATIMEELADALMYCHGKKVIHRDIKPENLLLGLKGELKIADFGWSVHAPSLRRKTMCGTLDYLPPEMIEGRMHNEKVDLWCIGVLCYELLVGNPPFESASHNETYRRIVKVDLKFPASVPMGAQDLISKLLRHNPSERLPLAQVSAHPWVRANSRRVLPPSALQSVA
RAC-alpha serine/threonine-protein kinase, sequence (P31749 whole entry): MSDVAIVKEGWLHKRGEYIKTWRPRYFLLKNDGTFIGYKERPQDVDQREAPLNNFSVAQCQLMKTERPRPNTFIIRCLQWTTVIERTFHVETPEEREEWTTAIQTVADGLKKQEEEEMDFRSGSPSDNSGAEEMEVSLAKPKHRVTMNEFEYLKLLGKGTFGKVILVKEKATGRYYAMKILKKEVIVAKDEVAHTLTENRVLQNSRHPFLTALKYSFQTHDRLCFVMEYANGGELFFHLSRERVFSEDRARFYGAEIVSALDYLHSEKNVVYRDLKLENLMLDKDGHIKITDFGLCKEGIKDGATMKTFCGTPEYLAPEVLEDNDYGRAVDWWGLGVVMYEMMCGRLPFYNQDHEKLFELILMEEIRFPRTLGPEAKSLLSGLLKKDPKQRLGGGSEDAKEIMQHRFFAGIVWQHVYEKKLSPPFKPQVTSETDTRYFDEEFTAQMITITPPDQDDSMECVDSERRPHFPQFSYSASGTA

IC50 (Ephrin type-B receptor 4) [nM]	IC50 [1] [nM]	IC50 [2] [nM]	IC50 [3] [nM]	IC50 (Aurora kinase B [4]) [nM]	IC50 [5] [nM]	IC50 (Aurora kinase B [6]) [nM]	IC50 [7] [nM]	IC50 [8] [nM]	IC50 [9] [nM]	SMILES
700	> 100	> 100	> 100	63	> 100	≤ 13	> 100	> 100	> 100	Cl.[2H]C([2H])(c1cc(Nc2nc(C)cn3c(-c4cn[nH]c4)cnc23)sn1)N1CCC(F)(F)C1
100	> 100	> 100	> 100	25	> 100	≤ 13	> 100	> 100	> 100	CCN(Cc1cc(Nc2nc(C)cn3c(-c4cn[nH]c4)cnc23)sn1)C(C)(C)CO
770	> 100	> 100	> 100	91	> 100	≤ 13	> 100	> 100	> 100	Cc1cn2c(-c3cn[nH]c3)cnc2c(Nc2cc(CN3CCC(F)(F)C3)ns2)n1.Cl
